Key:
[1] = system: Sprague-Dawley rats, LAD ligation infarct model of CHF; test: Left ventricular function by transthoracic echocardiography (fractional shortening) in rat infarct model of CHF; format: in vivo; conditions: 2 weeks post-infarction; captopril 2 g/l in drinking water; uninfarcted 56%, placebo 29%
From the text: After intubation, rats were ventilated continuously (room air) using a small animal ventilator (Model 683, Harvard Apparatus, Holliston, Mass.). A left lateral thoracotomy incision was made along the 5th intercostal space and after the pericardium was opened, the heart was exteriorized using a retention suture placed at the apex. The left anterior descending coronary artery (LAD) was ligated twice using 6-0 prolene suture (Ethicon, Cornelia, Ga.). After chest closure with running 3-0 vicryl suture (Ethicon), rats were put in a recovery chamber with a heating pad and warming light. The post-operative survival rate reached 80%. […] Rats were fed a standard diet of Teklad rodent feed (Harlan) ad libitum and kept on a 12:12 h light-dark cycle. Rats were sacrificed at designated time intervals of 2 weeks and 4 weeks after surgery. […] Cardiac function was estimated using fractional shortening (FS) obtained from the EDD and ESD in the parasternal long axis view and calculated as FS=((EDD-ESD)/EDD)×100%.

[2] = system: panel of genes listed in b69 and b71 (Tmlhe, Af6, F2, Ywag, PPAR A, Resp18, Edn1, oxytocin and others); test: Real-time PCR gene expression in aorta post MI, genes listed together as unchanged; format: in vivo, rat; conditions: post MI groups versus uninfarcted control
From the text: After intubation, rats were ventilated continuously (room air) using a small animal ventilator (Model 683, Harvard Apparatus, Holliston, Mass.). A left lateral thoracotomy incision was made along the 5th intercostal space and after the pericardium was opened, the heart was exteriorized using a retention suture placed at the apex. The left anterior descending coronary artery (LAD) was ligated twice using 6-0 prolene suture (Ethicon, Cornelia, Ga.). After chest closure with running 3-0 vicryl suture (Ethicon), rats were put in a recovery chamber with a heating pad and warming light. The post-operative survival rate reached 80%. […] Confirmation of microarray result by quantitative real-time PCR: The remaining RNA from the aortic or portal vein RNA sample was quantitatively converted to single stranded cDNA using the High-Capacity cDNA Archive Kit (Applied Biosystems, Foster City, Calif.). […] The synthesized cDNA was then mixed with TAQMAN® Universal PCR Master Mix (2.5 μl of cDNA+47.5 μl of RNase-free H2O+50 μl of Master Mix) and loaded onto 384-Well micro fluid cards for quantitative real-time PCR (TAQMAN® Low Density Arrays, Applied Biosystems). […] For each cDNA sample, four replicates were analyzed for real-time PCR. […] The array was then run on the Applied Biosystems 7900HT Fast Real-time PCR System, and the data were analyzed using an Applied Biosystems RQ Manager Software (SDS 2.1). […]

C[C@H](CS)C(=O)N1CCC[C@H]1C(=O)O [Captopril, 1-[(2S)-3-mercapto-2-methylpropionyl]-L-proline]
fractional shortening (FS) [1]: 38% | expression of 14 genes (Taok1, Raf1, Fmr1, Rock2, Baat, Gls2, Acot8, Tmlhe, Af6, F2, Ywag, PPAR A, Resp18, Edn1 and oxytocin) ([2]; 2 weeks post infarction): no significant change | expression of 14 genes (MIR16, Agt, Cxcl12, Seh1h, Cox5, HGF, Tmlhe, Af6, F2, Ywag, PPAR A, Resp18, Edn1 and oxytocin) ([2]; 4 weeks post infarction): no significant change

From patent US8293481B2, “Biomarkers for chronic vascular dysfunction” (Mayo Foundation for Medical Education and Research, priority 2006, dated 2012)
